The values that follow come from article PMC6533283, “Deciphering the regulatory and catalytic mechanisms of an unusual SAM-dependent enzyme” (Signal Transduction and Targeted Therapy, 2019).

Data set [1] deals with T1, LepI (Aspergillus flavus, UniProt B8NJH3).
T1 construct: codon-optimized gene in pET-15b (NdeI/XhoI), N-terminal His tag, E. coli BL21(DE3); homodimer; SAM and MTA partly copurify
As to the kind of experiment: HPLC assay of retro-Claisen rearrangement of compound […], rescue of SAH/MTA inhibition. Type of data set: biochemical. Particulars: 1 mM SI with 1 mM SAH or 1 mM MTA, 300 nM LepI, pH 8.0, 30 °C; SAM analogue, activator.

Data set [2] concerns the target T1, LepI. As to the kind of experiment: HPLC assay of retro-Claisen rearrangement of compound […]. Type of data set: biochemical. Particulars: read-out: % inhibition at 0.5 mM.
Data set [3] concerns the molecule itself. As to the kind of experiment: SEC; analytical gel filtration, Superdex 200 Increase 10/30 GL, protein at 1 mg/mL, 20 mM Na2HPO4, 50 mM NaCl, pH 8.0; sizes by standard protein markers.
Data set [4] concerns the molecule itself. As to the kind of experiment: crystal structure; LepI crystals grown in 0.15 M bis-Tris pH 7.0, 40% PEG 400; structures with SAM/MTA (1.7 Å), SAH (2.7 Å) and SAM/compound 1 (2.2 Å); two molecules in the asymmetric unit.

Several values for one entry are separate records, joined by “and”; a condition that tells them apart may be missing. Equal entries are not always repeated.

Regarding `Nc1ncnc2c1ncn2[C@@H]1O[C@H](C[C@@H](N)CC[C@H](N)C(=O)O)[C@@H](O)[C@H]1O` [Sinefungin], at LepI [1], the “HPLC assay of retro-Claisen rearrangement of compound 1, rescue of SAH/MTA inhib” value was “both SAM and SI completely rescued LepI activity for retro-Claisen rearrangement”.

In general, inhibition refers to how much of the control response was suppressed. With `CSC[C@H]1O[C@@H](n2cnc3c(N)ncnc32)[C@H](O)[C@@H]1O` [MTA], the inhibition at 500 µM at LepI [2] was found to be 30%.

B1: LepI-Δ15 (domain or fragment, Aspergillus flavus, UniProt B8NJH3 16-387, looked up)
chain: QSTDQFGRAEINDALRELQYSLETPFDTVMRMSLDTCQVAVARIGSDLGLFKHLSQCASPQSAEELADHLGCGRELMSRLLRYMASVRMVQQTDDIKYISSNITQTLAVPGLEAGMRHAFENLWPVLMALPDFLAERKYPDIVDAKDTAFQKAFNTDQDCFHWLATQPTRIANFKVLLTDERTPNFLSTFPLEKELGSWSAEPEKALFVDIGGGMGHACIRLREKYPNQPGRVILQDLPPVLQAAQATLPLSGIESMPHNFHTPQPVQGAKFYFLRLILRDFPDHQALEILQNIVPAMDAESRIVIDDGVPPEKGARWAETGTDICIMSALGSKERTQRQWEELAAKAGLQLQALYQYTWPVVNAAMVFSLQ
notes: LepI of Aspergillus flavus with an N-terminal deletion (Δ15, removes helix α1); N-terminal truncation designed from the structure to disrupt dimerization; also called α1 single deletion of LepI; α1 single deleted enzyme; source: E. coli, purified as described for LepI
The stoichiometry N is the number of molecules, sites or subunits per partner or assembly. Turning to B1, in data set [3], the “stoichiometry N” value is 2 and 4.

B2: leporin biosynthesis enzyme LepI (enzyme, Aspergillus flavus)
chain: METVAAIKTLIQQLAQSTDQFGRAEINDALRELQYSLETPFDTVMRMSLDTCQVAVARIGSDLGLFKHLSQCASPQSAEELADHLGCGRELMSRLLRYMASVRMVQQTDDIKYISSNITQTLAVPGLEAGMRHAFENLWPVLMALPDFLAERKYPDIVDAKDTAFQKAFNTDQDCFHWLATQPTRIANFKVLLTDERTPNFLSTFPLEKELGSWSAEPEKALFVDIGGGMGHACIRLREKYPNQPGRVILQDLPPVLQAAQATLPLSGIESMPHNFHTPQPVQGAKFYFLRLILRDFPDHQALEILQNIVPAMDAESRIVIDDGVPPEKGARWAETGTDICIMSALGSKERTQRQWEELAAKAGLQLQALYQYTWPVVNAAMVFSLQ
notes: LepI, SAM-dependent enzyme of the leporin biosynthesis gene cluster of Aspergillus flavus; codon-optimized gene in pET-15b between NdeI and XhoI; Homodimer in the asymmetric unit of the crystal; Endogenous SAM and MTA co-purified with the protein; A selenomethionine form was used for phasing; also called wild-type (WT) LepI; native-LepI; source: E. coli BL21 (DE3), purified (Ni resin, …)
On to B2, for which, in data set [4], the binding result is “binds”.
